These results are taken from US8741932B2, “Imidazopyridine derivatives” (Piramal Enterprises Limited, priority 2009, dated 2014).

Like-named read-outs stand apart in the source and are kept apart here. Bounds are passed on as bounds.

Experiment [1] deals with T1, mTOR (Homo sapiens, UniProt P42345).
T1 construct: endogenous in cells; host or cells: A2780 ovarian cell line (ATCC)
Description: mTOR activity assay (cell ELISA, Phospho-AKT Ser 473, A2780 cells). It counts as cell-based. How it is done: Seed cells (Ovarian cell line A2780, ATCC) were plated in a 96 well microtitre plate at a density of 50,000 cells/cm^2 in appropriate complete cell culture medium. The cells were allowed to adhere for 18-24 hours. The cells were allowed to starve for 24 hours. […] Then the cells were stimulated with 20% FCS for 30 minutes. A typical assay would consist of a set of unstimulated cells, a set of stimulated cells and a set of cells treated with compounds of present invention and a set of cells treated with the stimulator. The medium was discarded. The cells were fixed with 100 μL of 3.7% formaldehyde for 15 minutes. The formaldehyde was discarded by inverting the plate and tapping it on a thick tissue paper layer to remove traces. The cells were washed and permeabilized with 200 μL PBS+Triton-X 100 solution (hereafter referred to as PBS-Triton, containing 0.1% triton-X 100 in 1×PBS) three times, incubating the cells each time for 5 minutes. 100 μL blocking solution (10% FCS in PBS-Triton) was added and incubated for 1 hour at 25° C. The blocking solution was discarded and cells were incubated with the primary antibody in PBS-Triton at a dilution of 1:500 for 1 hour at RT (25° C.). [The primary antibody is Phospho-AKT (Ser 473); Cell Signaling; Cat. No. 9271]. The primary antibody solution was discarded and the cells were washed 3 times with PBS-Triton solution and incubated with the HRP-conjugated secondary antibody in PBS-Triton at a dilution of 1:500 for 1 hour at RT (25° C.). The cells were washed 3 times with PBS-Triton followed by two washes with PBS (to remove traces of triton-X 100). The OPD (o-phenylene diamine dihydrochloride) substrate was prepared for detection of the signal by dissolving one tablet set (two tablets) of SigmaFast OPD (Sigma, Cat No. P9187) in 20 mL distilled water. It should be protected from light. 100 μL OPD solutions was added to the wells and the plate was incubated in the dark for 3-5 minutes (depending upon the development of the color). The reaction was stopped by adding 50 μL 2 N H2SO4. The absorbance was measured at 490 nm. The values were expressed in the treated samples, in terms of percentage or fold decrease in AKT phosphorylation with respect to the induced sample. PI-103 (Calbiochem, USA) was used as a standard.
(In an ELISA, binding on a coated surface is turned into a signal by an enzyme label.)

The test system of experiment [2] is STAT3. Description: STAT3 bioassay (Hela Stat3-luc, luciferase). The class given is cell-based. Conditions: Homo sapiens, Oncostatin M induction. How it is done:
Cells were seeded (Hela Stat3-luc, ATCC P/N 30-2002) in a white 96 well plate (Nunc cat.no.136101) at a density of 20,000cells/well in 179 μl volume per well (DMEM from Sigma containing 10% FCS). The plate was incubated for 24 hours at 37° C./5% CO2. The cells (wells in triplicates) were then treated with 1 μl/well of 200× stock of the desired compound concentration prepared in 100% DMSO. Curcumin was used as a standard or positive control, added 10 μg/ml in triplicate. DMSO was used as medium control (1 μl/well added in triplicates). The plate was incubated at 37° C./5% CO2 for 1 hour. 20 μl/well Oncostatin M (Oncostatin M, Human, Recombinant, E. coli, Cat.No. 496260, 10 μg from Calbiochem) was added to treated wells, induction control (in triplicate) (1000 ng/ml stock prepared in serum free medium to get final concentration 100 ng/ml). The plate was then incubated for 7-8 hours at 37° C./5% CO2 for induction. A typical assay would consist of triplicate of medium control, triplicate of induction control, triplicate of positive/standard control and test compounds at desired concentration in triplicates. For termination Luciferase assay protocol was followed where the culture medium was removed from all the wells.
200 μl well of PBS was added to remove traces of medium and compound. The PBS was discarded. 40 μl/well of 1× lysis buffer was added to all the wells. The plate was incubated at RT for 20 minutes with intermittent shaking. 100 μl/well of LAB reagent was added to all the wells in dark. {LAB reagent for 1 plate=8 ml Luciferase assay buffer (LAB)+1 ml Coenzyme A (Sigma cat no. C3019) (2.1 mg/ml stock in LAB)+530 μL of ATP (Sigma cat.no.A2383) (5.85 mg/ml stock in LAB)+1 ml luciferin reagent (Promega cat no.245355) (2 mg/ml stock in LAB, protect from light)}.
The luminescence was immediately read on polar star. The values were expressed as percentage inhibition, in terms of treated values to that STAT3 (induction control). IC50 values were calculated from graphs using these percentages.

In experiment [3] the test system is A549. Description: Cytotoxicity assay (propidium iodide), A549. The class given is cell-based. The note with it: Homo sapiens; A549 (C1a, lung); 48 hours.
The subject of experiment [4] is H460. Description: Cytotoxicity assay (propidium iodide), H460. The class given is cell-based. The note with it: Homo sapiens, NCI-H460; H460 (C1b, lung); 48 hours.
Experiment [5] relates to A2780. Description: Cytotoxicity assay (propidium iodide), A2780. The note with it: Homo sapiens; A2780 (C3a, ovarian); 48 hours. The class given is cell-based.
Experiment [6] has as its system OVCAR 3. Description: Cytotoxicity assay (propidium iodide), OVCAR 3. The class given is cell-based. The note with it: Homo sapiens; OVCAR 3 (C3c, ovarian); 48 hours.
Description: (§1) Cells from cell lines as mentioned in the table given below were seeded at a density of 3000 cells/well in a white opaque 96-well plate. Following incubation at 37° C./5% CO2 for a period of 18-24 hours, the cells were treated with various concentrations (stock solution was prepared in DMSO and subsequent dilutions were made in media as per ATCC guidelines) of the representative compounds of present invention (refer table 3) for a period of 48 hours. At the end of treatment, the spent culture medium was discarded, the cells were washed with 1×PBS and 200 μl of 7 μg/ml propidium iodide was added to each well. The plates were frozen at −70° C. for at least 24 hours. For analysis, the plates were brought to RT, allowed to thaw and were read in PolarStar fluorimeter with the fluorescence setting. The percentage of viable cells in the non treated set of wells was considered to be 100 and the percentage viability following treatment was calculated accordingly. IC50 values were calculated from graphs plotted using these percentages.
Experiment [7] relates to HCT116. Description: Cytotoxicity assay (propidium iodide), HCT116. The class given is cell-based. Conditions: Homo sapiens, HCT-116; HCT116 (C4b, colon); 48 hours.
Experiment [8] has as its system PC3. The experiment is described as follows: Cytotoxicity assay (propidium iodide), PC3. Conditions: Homo sapiens, PC-3, 48 h, read-out: IC50 cytotoxicity.
Description: as §1
Experiment [9] deals with T2, PI3Kα kinase (Homo sapiens, UniProt P42336).
T2 construct: purchased Millipore, USA
The experiment is described as follows: Kinase assay (PI3Kα). Conditions: for IC50: read-out: IC50 (μM) for PI3K inhibition. It counts as biochemical. How it is done:
The kinase reaction was carried out in a 25 μL volume in a 1.5 mL microcentrifuge tube. The reaction mixture consisted of kinase buffer (10 mM Hepes, pH 7.5, 50 mM MgCl2), 20 ng PI3Kα kinase (Millipore, USA), 12.5 μg phosphotidylinositol (PI), 10 μM ATP and 1 μCi ^32γ P […]. […] The reactions were incubated at 30° C. for 20 minutes and were terminated by adding 1:1 mixture of MeOH and CHCl3. The tube contents were mixed on a vortex mixer and centrifuged at 10000 rpm for 2 minutes. 10 μL of the organic (lower) phase was spotted on to a TLC plate (silica, mobile phase: n-propanol and 2 M glacial acetic acid in 65:35 ratio). The plates were dried and exposed to an X-ray film. The bands appearing as a result of ^32γ P incorporation in PI were quantitated using the Quantityl)ne (BioRad, USA) densitometry program. PI-103 (Calbiochem, USA) was used as a standard.

The test system of experiment [10] is IL-6. The experiment is described as follows: Human monocyte assay, LPS-stimulated IL-6. Conditions: Monocyte; human monocytes, 1 μg/ml LPS, 5 hours. The class given is cell-based. In outline:
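Adherent human PBMC-derived monocytes (2×10^4/well) were cultured 48 h, preincubated 30 min with compound or 0.5% DMSO, then stimulated with 1 μg/ml E. coli LPS for 5 h at 37° C. TNF-α and IL-6 in supernatants were measured by ELISA.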

Experiment [11] relates to TNF-α. Description: Human monocyte assay, LPS-stimulated TNF-α. It counts as cell-based. Conditions: human monocytes, 1 μg/ml LPS, 5 hours. How it is done:
The assay was designed as in the reference, Physiol.
Peripheral blood mononuclear cells (hPBMC) were harvested from human blood and suspended in RPMI 1640 culture medium containing 10% FCS, 100 U/mL penicillin and […] streptomycin (assay medium). Monocytes in the hPBMCs were counted using a Coulter Counter following which the cells were resuspended at 2×10^5 monocytes/mL. A cell suspension containing 2×10^4 monocytes was aliquoted per well of a 96-well plate. Subsequently, the hPBMCs were incubated for 4-5 hours at 37° C., 5% CO2 (During the incubation, the monocytes adhered to the bottom of 96-well plastic culture plate). Following the incubation, the non-adherent lymphocytes were washed with assay medium and the adherent monocytes re-fed with assay medium. After a 48-hour incubation period (37° C., 5% CO2), monocytes were pretreated with various concentrations of representative compounds of present invention (refer to table 6 and 7) (prepared in DMSO) or vehicle (0.5% DMSO) for 30 minutes and stimulated with 1 μg/ml LPS (Escherchia coli 0111:B4, Sigma Chemical Co., St. Louis, Mo.). The incubation was continued for 5 hours at 37° C., 5% CO2. Supernatants were harvested, assayed for IL-6 and TNF-α by ELISA as described by the manufacturer (BD Biosciences, USA). Dexamethasone (10 μM) was used as standard for this assay. […] Biological results for both IL-6 and TNFα are indicated in Table 6 and Table 7 respectively.

Where [12] appears, read: read-out: % Inhibition of mTOR activity at 1 μM.

Usually inhibition stands for the drop in the measured response relative to a control, in per cent. The term IC50 denotes the concentration needed to halve the response being measured.

T2 sequence (P42336 whole entry): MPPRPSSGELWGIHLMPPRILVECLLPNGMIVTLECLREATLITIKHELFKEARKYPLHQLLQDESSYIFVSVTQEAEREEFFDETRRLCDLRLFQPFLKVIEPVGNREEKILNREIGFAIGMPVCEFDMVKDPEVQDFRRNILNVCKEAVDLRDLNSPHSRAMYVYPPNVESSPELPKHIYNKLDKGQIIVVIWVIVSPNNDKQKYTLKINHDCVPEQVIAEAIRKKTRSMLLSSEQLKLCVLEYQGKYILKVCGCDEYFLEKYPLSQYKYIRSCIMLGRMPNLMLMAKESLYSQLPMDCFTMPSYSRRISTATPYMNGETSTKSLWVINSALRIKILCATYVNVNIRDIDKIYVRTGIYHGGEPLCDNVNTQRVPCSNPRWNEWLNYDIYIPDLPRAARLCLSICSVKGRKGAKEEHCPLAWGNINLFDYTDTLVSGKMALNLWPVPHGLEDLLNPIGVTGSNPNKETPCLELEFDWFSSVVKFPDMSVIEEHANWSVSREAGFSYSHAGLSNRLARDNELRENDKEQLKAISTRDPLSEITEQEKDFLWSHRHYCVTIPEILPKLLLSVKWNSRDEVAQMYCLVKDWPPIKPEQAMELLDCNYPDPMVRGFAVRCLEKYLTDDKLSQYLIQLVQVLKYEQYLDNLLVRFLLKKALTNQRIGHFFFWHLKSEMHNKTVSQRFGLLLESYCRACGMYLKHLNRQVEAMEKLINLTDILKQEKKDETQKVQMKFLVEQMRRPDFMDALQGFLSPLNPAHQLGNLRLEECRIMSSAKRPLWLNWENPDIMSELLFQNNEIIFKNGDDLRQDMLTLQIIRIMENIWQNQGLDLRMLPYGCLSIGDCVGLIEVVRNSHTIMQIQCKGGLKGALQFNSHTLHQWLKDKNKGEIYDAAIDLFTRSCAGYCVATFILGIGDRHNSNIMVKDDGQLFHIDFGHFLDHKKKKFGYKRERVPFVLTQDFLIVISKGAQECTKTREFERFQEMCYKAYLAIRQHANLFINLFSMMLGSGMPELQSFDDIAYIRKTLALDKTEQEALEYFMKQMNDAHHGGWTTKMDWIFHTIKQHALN
T2 sequence (P27986 whole entry partner): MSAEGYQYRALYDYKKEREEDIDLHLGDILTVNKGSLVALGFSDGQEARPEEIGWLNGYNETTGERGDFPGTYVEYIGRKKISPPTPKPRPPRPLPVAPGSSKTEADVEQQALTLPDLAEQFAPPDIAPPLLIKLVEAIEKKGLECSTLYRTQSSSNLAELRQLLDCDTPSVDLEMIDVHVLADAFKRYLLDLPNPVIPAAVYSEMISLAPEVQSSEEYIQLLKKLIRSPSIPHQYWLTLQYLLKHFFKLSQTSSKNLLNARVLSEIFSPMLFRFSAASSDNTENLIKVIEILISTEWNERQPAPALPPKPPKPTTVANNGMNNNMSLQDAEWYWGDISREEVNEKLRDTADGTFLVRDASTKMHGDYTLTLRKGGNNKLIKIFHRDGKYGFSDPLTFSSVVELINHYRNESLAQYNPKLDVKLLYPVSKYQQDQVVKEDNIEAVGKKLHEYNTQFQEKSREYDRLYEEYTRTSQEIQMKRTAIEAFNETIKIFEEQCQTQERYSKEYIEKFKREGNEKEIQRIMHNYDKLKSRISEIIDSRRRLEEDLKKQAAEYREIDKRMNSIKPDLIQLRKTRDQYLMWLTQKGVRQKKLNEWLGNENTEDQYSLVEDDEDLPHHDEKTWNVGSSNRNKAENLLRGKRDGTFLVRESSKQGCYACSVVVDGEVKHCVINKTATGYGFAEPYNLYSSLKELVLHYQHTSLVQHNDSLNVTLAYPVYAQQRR

Consider `CN(N=Cc1cnc2ccc(-c3cccnc3)cn12)S(=O)(=O)c1ccc(Br)cc1` [Example 8, 4-Bromo-N-methyl-N′-((6-(pyridine-3-yl)imidazo[1,2-a]pyridine-3-yl)methylene)benzenesulfonohydrazide], for which, in experiment [1] (setting [12]), the inhibition at 1 µM was 30 to 50%. The IC50 in experiment [2] is 100 to 5000 nM.
Consider `COc1ccc(S(=O)(=O)N(C)N=Cc2cnc3ccc(-c4cccnc4)cn23)cc1` [Example 12, 4-Methoxy-N-methyl-N′-((6-(pyridine-3-yl)imidazo[1,2-a]pyridine-3-yl)methylene)benzenesulfonohydrazide], for which the IC50 in experiment [3], in experiment [4], in [5], in [6], in [7] and in [8] was 10 to 5000 nM in each case.
Take `CN(N=Cc1cnc2ccc(-c3cccnc3)cn12)S(=O)(=O)c1ccc(F)c(F)c1` [Example 15, 3,4-difluoro-N-methyl-N′-((6-(pyridine-3-yl)imidazo[1,2-a]pyridine-3-yl)methylene) benzenesulfonohydrazide]: the values for the IC50 in [9] and in experiment [2] were 0.5 to 1 µM and 100 to 5000 nM, respectively. The inhibition at 1 µM in [1] (setting [12]) is 30 to 50%.
For the compound `CN(N=Cc1cnc2ccc(-c3cccnc3)cn12)S(=O)(=O)c1cccc(Cl)c1F` [Example 17, 3-Chloro-2-fluoro-N-methyl-N′-((6-(pyridine-3-yl)imidazo[1,2-a]pyridine-3-yl)methylene) benzenesulfonohydrazide], the IC50 in experiment [9] was in the range of 0.01 to 0.5 µM; in [10] it was 0.001 to 5 µM. For the same compound, in [1] (setting [12]), the inhibition at 1 µM was in the range of 30 to 50%.
For the compound `CN(N=Cc1cnc2ccc(-c3cccnc3)cn12)S(=O)(=O)c1cc(C(F)(F)F)cc(C(F)(F)F)c1` [Example 23, N-methyl-N′-((6-(pyridine-3-yl)imidazo[1,2-a]pyridine-3-yl)methylene)-3,5-bis(trifluoromethyl)benzenesulfonohydrazide], the IC50 in [9] lay within 0.01 to 0.5 µM; in experiment [3], 10 to 5000 nM; in [4], 10 to 5000 nM; in experiment [5], 10 to 5000 nM; in experiment [10], 0.001 to 5 µM. Also, in [1] (setting [12]), the inhibition at 1 µM was 30 to 50%.
On to `COc1ccc(F)cc1S(=O)(=O)N(C)/N=C/c1cnc2ccc(-c3cccnc3)cn12` [Example 45, (E)-5-fluoro-2-methoxy-N-methyl-N′-((6-(pyridin-3-yl)imidazo[1,2-a]pyridin-3-yl)methylene)benzenesulfonohydrazide], for which the IC50 in experiment [3] fell in the range of 10 to 5000 nM; in experiment [4], 10 to 5000 nM; in experiment [10], 0.001 to 5 µM; in [11], 1 to 1000 nM.
In the case of `CCN(/N=C/c1cnc2ccc(-c3cccnc3)cn12)S(=O)(=O)c1cc([N+](=O)[O-])ccc1C` [Example 84], the values for the IC50 in experiment [9] and in experiment [10] were 0.01 to 0.5 µM and 0.001 to 5 µM, respectively. Moreover, the inhibition at 1 µM in experiment [1] (setting [12]) is 30 to 50%.
As for `Cc1cc(-c2cccnc2)cn2c(/C=N/N(C)S(=O)(=O)c3ccc(F)c(C#N)c3)cnc12` [Example 105, (E)-3-cyano-4-fluoro-N-methyl-N′-((8-methyl-6-(pyridin-3-yl)imidazo[1,2-a]pyridin-3-yl)methylene)benzenesulfonohydrazide], the IC50 is 0.001 to 5 µM in experiment [10] and 1 to 1000 nM in experiment [11].
Regarding `Cc1ccc(F)cc1S(=O)(=O)N(C)/N=C/c1cnc2ccc(-c3cc4ccccc4[nH]3)cn12` [Example 115, (E)-N′-((6-(1H-indol-2-yl)imidazo[1,2-a]pyridin-3-yl)methylene)-5-fluoro-N,2-dimethylbenzenesulfonohydrazide], the IC50 in experiment [9] was 0.01 to 0.5 µM; in experiment [1], 5000 to 10000 nM; in experiment [2], 5000 to 10000 nM; in experiment [10], not below 5 µM.
With `Oc1cccc(-c2nc(N3CCOCC3)c3oc4ncccc4c3n2)c1` [PI-103, reference compound], 0.1 µM produced 80% inhibition in experiment [9] (at 100 nM). Further, in [1] (read-out: % Inhibition of mTOR activity at 1 μM (number, standard)), the inhibition at 1 µM came to 50%.
